According to US9999650B2, “Peptide and peptidomimetic inhibitors” (Ra Pharmaceuticals, Inc., priority 2012, dated 2018):
Where two headings read alike, the source gives them in different places. Numbered stars: 1 amine (or outer) side, 2 acyl side, 3 side chain; on linkers, the order of the positions; unused ones are H or OH. Bridge positions count the residues as written; N and C are the ends. Square brackets hold non-standard residues; d marks the D form. Peptide text beside a SMILES is read from it. mXylylene = c1cc(C[*:1])cc(C[*:2])c1; Phg = N[C@H](C(=O)O)c1ccccc1; Tle = CC(C)(C)[C@H](N)C(=O)O; NMeS = CN[C@@H](CO)C(=O)O; Nva = CCC[C@H](N)C(=O)O; Mpa = O=C(O)CCS

Key:
Assay type in all cases: biochemical
[1] = target: T1, thrombin (Homo sapiens, UniProt P00734); assay: Inhibitor specificity IC50 assay, thrombin (Boc-Val-Pro-Arg-AMC); details: substrate Boc-Val-Pro-Arg-AMC
T1 construct: thrombin (Enzyme Research Laboratories, South Bend, Ind.); purchased Enzyme Research Laboratories
Method: (§1) Activated human plasma kallikrein (Enzyme Research Laboratories, HPKa 1303) was reacted with H-Pro-Phe-Arg-7-amido-4-methylcoumarin (H-Pro-Pre-Arg-AMC) (a fluorogenic substrate for plasma as well as pancreatic and urinary kallikreins; Bachem I-1295) and candidate inhibitory peptides to determine the IC50 of the inhibitor.
(§2) Ten 8-fold serial dilutions of peptides (10 mM DMSO stocks) were performed in DMSO and then added to TCNB (50 mM Tris-HCl pH 7.2, 150 mM NaCl, 10 mM CaCl2, 0.05% Brij-35) and sonicated. 50 μL of the peptide dilutions were added to microtitre plates (96 well, black non-binding surface, Corning, 3650) and incubated for 5 minutes at room temperature with 4 nM activated human kallikrein (final concentration after addition of fluorogenic substrate: 1 nM). The samples were then incubated for 1 hour at room temperature with 2 mM H-Pro-Phe-Arg-AMC (final concentration 500 μM). Relative Fluorescence Units (RFU) were measured at excitation/emission 360 nm/460 nm by a SpectraMax M3.
(§3) To determine the specificity of peptide inhibitors, an IC50 assay, as described in Example 4, was performed on a variety of serine proteases related to human plasma kallikrein. The enzymes tested include mouse plasma kallikrein (R&D Systems, Minneapolis, Minn.), and the human enzymes Factor VIIa (Enzyme Research Laboratories, South Bend, Ind.), Factor Xa (Enzyme Research Laboratories, South Bend, Ind.), Factor XIa (Enzyme Research Laboratories, South Bend, Ind.), Factor XIIa (Enzyme Research Laboratories, South Bend, Ind.), tissue kallikrein KLK13 (R&D Systems, Minneapolis, Minn.), thrombin (Enzyme Research Laboratories, South Bend, Ind.) and plasmin (Enzyme Research Laboratories, South Bend, Ind.).
(§4) Each enzyme was tested with the following specific fluorgenic substrates (available from Bachem; Torrance, Calif.): mouse plasma kallikrein (Pro-Phe-Arg-AMC), Factor VIIa (Boc-Val-Pro-Arg-AMC), Factor Xa (Boc-Gln-Gly-Arg-AMC), Factor XIa (Boc-Gln-Gly-Arg-AMC), Factor XIIa (Boc-Gln-Gly-Arg-AMC), KLK13 (Boc-Val-Pro-Arg-AMC), thrombin (Boc-Val-Pro-Arg-AMC) and plasmin (Boc-Val-Leu-Lys-AMC). Peptide inhibitors R2006, R2010, R2012, R2019, R2023, R2030, R2036, R2041, R2047, R2104 and R2051 were assayed.

[2] = target: T2, Factor XIIa (Homo sapiens, UniProt P00748); assay: Inhibitor specificity IC50 assay, Factor XIIa (Boc-Gln-Gly-Arg-AMC); details: substrate Boc-Gln-Gly-Arg-AMC
T2 construct: Factor XIIa (Enzyme Research Laboratories, South Bend, Ind.); purchased Enzyme Research Laboratories
T2 sequence (P00748 373-615 limits assumed): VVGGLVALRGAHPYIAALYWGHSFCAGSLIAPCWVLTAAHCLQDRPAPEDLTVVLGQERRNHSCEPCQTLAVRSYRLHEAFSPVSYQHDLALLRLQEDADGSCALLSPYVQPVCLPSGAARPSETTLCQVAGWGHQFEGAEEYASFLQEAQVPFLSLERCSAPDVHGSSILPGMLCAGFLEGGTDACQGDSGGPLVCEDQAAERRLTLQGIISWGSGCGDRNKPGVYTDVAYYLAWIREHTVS
Method: as §1, §2, §3, §4

[3] = target: T3, tissue kallikrein KLK13 (Homo sapiens, UniProt Q9UKR3); assay: Inhibitor specificity IC50 assay, KLK13 (Boc-Val-Pro-Arg-AMC); details: substrate Boc-Val-Pro-Arg-AMC
T3 construct: purchased R&D Systems
T3 sequence (Q9UKR3 17-277): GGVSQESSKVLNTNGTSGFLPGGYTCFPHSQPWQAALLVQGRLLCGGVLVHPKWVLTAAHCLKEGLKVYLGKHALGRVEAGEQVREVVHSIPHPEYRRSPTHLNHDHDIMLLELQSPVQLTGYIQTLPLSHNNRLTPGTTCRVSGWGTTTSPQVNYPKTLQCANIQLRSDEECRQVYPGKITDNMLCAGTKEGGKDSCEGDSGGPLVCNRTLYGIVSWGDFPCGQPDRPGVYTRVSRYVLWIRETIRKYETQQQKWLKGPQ
Method: as §1, §2, §3, §4

[4] = target: T4, Factor XIa (Homo sapiens, UniProt P03951); assay: Inhibitor specificity IC50 assay, Factor XIa (Boc-Gln-Gly-Arg-AMC); details: substrate Boc-Gln-Gly-Arg-AMC
T4 construct: Factor XIa (Enzyme Research Laboratories, South Bend, Ind.); purchased Enzyme Research Laboratories
Method: as §1, §2, §3, §4

[5] = target: T5, Factor VIIa (Homo sapiens, UniProt P08709); assay: Inhibitor specificity IC50 assay, Factor VIIa (Boc-Val-Pro-Arg-AMC); details: substrate Boc-Val-Pro-Arg-AMC
T5 construct: Factor VIIa (Enzyme Research Laboratories, South Bend, Ind.); purchased Enzyme Research Laboratories
T5 sequence (P08709 61-212 limits assumed): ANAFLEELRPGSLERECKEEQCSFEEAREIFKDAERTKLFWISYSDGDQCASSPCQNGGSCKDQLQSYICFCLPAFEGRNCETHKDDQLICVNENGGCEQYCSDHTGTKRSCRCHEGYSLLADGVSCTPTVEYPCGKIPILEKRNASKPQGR
T5 sequence (P08709 213-466 limits assumed): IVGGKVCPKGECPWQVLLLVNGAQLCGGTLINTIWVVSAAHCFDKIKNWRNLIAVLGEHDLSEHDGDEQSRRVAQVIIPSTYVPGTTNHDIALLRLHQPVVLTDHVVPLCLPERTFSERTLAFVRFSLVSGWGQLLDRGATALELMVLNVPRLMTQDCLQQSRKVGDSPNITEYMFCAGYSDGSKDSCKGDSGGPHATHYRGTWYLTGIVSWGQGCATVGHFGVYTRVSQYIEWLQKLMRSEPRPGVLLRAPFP
Method: as §2, §3, §4

[6] = target: T6, human plasma kallikrein (Homo sapiens, UniProt P03952); assay: Enzyme inhibition assay (fluorogenic substrate H-Pro-Phe-Arg-AMC)
T6 construct: purchased Enzyme Research Laboratories HPKa 1303
Procedure, shortened: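 Activated enzyme (1 nM final) was preincubated 5 min at room temperature with peptides in 10-point 8-fold dilutions. The buffer was 50 mM Tris-HCl pH 7.2, 150 mM NaCl, 10 mM CaCl2, 0.05% Brij-35. After 1 h at room temperature with 500 μM substrate (final), fluorescence was read at 360/460 nm to derive IC50.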

[7] = target: T7, Factor Xa (Homo sapiens, UniProt P00742); assay: Inhibitor specificity IC50 assay, Factor Xa (Boc-Gln-Gly-Arg-AMC); details: substrate Boc-Gln-Gly-Arg-AMC
T7 construct: Factor Xa (Enzyme Research Laboratories, South Bend, Ind.); purchased Enzyme Research Laboratories
Method: as §1, §2, §3, §4

[8] = target: T8, plasmin (Homo sapiens, UniProt P00747); assay: Inhibitor specificity IC50 assay, plasmin (Boc-Val-Leu-Lys-AMC); details: substrate Boc-Val-Leu-Lys-AMC
T8 construct: plasmin (Enzyme Research Laboratories, South Bend, Ind.); purchased Enzyme Research Laboratories
Method: as §1, §2, §3, §4

[9] = Kallikrein inhibitory activity, 1 nM activated human kallikrein, 500 μM H-Pro-Phe-Arg-AMC, 1 hour room temperature, read-out: Avg. IC50

T7 sequence (P00742 41-179 limits assumed): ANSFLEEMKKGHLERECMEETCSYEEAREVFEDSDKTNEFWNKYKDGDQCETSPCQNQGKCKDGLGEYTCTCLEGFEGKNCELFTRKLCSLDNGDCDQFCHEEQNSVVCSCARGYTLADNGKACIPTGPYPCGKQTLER
T7 sequence (P00742 235-488 limits assumed): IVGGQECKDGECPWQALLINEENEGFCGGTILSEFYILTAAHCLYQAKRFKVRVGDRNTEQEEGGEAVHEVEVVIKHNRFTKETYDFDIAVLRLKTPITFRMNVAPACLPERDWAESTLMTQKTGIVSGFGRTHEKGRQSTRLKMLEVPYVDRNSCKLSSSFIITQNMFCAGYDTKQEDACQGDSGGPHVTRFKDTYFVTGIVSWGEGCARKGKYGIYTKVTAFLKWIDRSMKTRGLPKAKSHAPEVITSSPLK
T6 sequence (P03952 20-390 limits assumed): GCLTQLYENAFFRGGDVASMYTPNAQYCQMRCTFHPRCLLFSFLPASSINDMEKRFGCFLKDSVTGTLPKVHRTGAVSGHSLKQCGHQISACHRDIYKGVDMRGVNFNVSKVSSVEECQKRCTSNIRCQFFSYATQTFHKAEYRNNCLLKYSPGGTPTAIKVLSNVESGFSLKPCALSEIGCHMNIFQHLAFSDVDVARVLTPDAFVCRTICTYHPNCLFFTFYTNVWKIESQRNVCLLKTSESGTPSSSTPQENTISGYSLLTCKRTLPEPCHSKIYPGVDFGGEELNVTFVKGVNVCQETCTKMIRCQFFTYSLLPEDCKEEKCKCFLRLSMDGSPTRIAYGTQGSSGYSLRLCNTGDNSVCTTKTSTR
T6 sequence (P03952 391-638 limits assumed): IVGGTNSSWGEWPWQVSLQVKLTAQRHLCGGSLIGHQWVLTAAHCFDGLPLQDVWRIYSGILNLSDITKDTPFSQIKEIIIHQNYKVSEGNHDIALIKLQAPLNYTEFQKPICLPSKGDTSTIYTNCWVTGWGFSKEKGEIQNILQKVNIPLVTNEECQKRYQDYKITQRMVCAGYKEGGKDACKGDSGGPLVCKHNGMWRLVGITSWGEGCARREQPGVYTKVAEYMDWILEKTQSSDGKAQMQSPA
T4 sequence (P03951 19-387 limits assumed): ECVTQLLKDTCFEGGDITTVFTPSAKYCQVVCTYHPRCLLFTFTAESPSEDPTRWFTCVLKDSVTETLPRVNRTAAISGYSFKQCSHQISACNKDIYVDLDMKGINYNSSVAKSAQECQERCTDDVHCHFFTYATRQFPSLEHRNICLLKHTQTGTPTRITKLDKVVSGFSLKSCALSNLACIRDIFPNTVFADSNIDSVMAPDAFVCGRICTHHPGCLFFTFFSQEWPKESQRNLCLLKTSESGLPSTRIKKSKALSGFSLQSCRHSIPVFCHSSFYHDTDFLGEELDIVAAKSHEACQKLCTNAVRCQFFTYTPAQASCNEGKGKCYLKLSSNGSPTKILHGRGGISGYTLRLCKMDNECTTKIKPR
T4 sequence (P03951 388-625 limits assumed): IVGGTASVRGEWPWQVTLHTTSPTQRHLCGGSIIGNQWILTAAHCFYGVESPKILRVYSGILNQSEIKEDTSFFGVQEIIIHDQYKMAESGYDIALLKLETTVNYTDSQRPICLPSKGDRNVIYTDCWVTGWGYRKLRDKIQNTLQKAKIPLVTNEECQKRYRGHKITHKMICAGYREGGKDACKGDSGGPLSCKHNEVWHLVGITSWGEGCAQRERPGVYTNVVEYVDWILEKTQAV
T8 sequence (P00747 97-580 limits assumed): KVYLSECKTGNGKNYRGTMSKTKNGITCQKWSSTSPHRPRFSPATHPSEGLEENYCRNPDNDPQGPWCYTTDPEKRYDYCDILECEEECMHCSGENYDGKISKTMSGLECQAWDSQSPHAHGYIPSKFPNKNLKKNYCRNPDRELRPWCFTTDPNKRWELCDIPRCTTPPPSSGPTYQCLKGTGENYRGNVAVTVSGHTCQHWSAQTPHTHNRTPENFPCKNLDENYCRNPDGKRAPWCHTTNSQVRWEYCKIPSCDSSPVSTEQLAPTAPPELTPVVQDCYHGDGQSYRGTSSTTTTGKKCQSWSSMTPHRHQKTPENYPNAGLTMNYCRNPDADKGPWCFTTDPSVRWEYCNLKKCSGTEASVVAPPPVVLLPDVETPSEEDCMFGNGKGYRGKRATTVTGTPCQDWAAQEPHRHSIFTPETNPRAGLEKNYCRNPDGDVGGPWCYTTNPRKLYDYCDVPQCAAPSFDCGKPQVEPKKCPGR
T8 sequence (P00747 581-810 limits assumed): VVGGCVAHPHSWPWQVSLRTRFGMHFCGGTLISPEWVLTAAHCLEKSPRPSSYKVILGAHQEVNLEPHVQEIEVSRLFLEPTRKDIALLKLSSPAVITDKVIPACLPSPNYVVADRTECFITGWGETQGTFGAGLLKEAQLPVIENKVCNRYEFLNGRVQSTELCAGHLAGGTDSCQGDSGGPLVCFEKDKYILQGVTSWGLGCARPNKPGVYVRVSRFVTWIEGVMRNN

Structure (SMILES)	IC50 [1] [µM]	IC50 [2] [µM]	IC50 [3] [µM]	IC50 [4] [µM]	IC50 [5] [µM]	IC50 [6, 9] [µM]	IC50 [7] [µM]	IC50 [8] [µM]	IC50 ([6]; Inhibitor specificity table, read-out: Human Kallikrein IC50) [µM]
CC[C@H](C)[C@@H]1NC(=O)[C@H](CO)NC(=O)[C@H](CCC(=O)O)NC(=O)[C@@H](NC(=O)[C@@H](N)CCSC)CSCc2cccc(c2)CSC[C@@H](C(=O)N[C@@H](CCCNC(=N)N)C(=O)N[C@H](C(N)=O)C(C)(C)C)NC1=O [Compound R2010, [mXylyl(2,6)]MCESICR-Tbg-NH2] (H-MCESICR[Tle]-NH2; linker 2-6 via mXylylene; N-terminus assumed)	> 100	> 100	> 100	> 15	> 100	0.0099	> 100	> 100	
CC[C@H](C)[C@@H]1NC(=O)[C@H](CO)N(C)C(=O)[C@H](CCC(=O)O)NC(=O)[C@@H](NC(=O)[C@@H](N)CCSC)CSCc2cccc(c2)CSC[C@@H](C(=O)N[C@@H](CCCNC(=N)N)C(=O)N[C@H](C(N)=O)C(C)C)NC1=O [Compound R2019, [mXylyl(2,6)]MCE-nMeS-ICRV-NH2] (H-MCE[NMeS]ICRV-NH2; linker 2-6 via mXylylene; N-terminus assumed)	> 100	> 12.5	> 16.4	> 9.1	> 100	0.0523	> 10	> 21	
CCC[C@H](N)C(=O)N[C@H]1CSCc2cccc(c2)CSC[C@@H](C(=O)N[C@@H](CCCNC(=N)N)C(=O)N[C@H](C(N)=O)C(C)(C)C)NC(=O)[C@H](c2ccccc2)NC(=O)[C@@H]2CCCN2C(=O)[C@H](CCC(=O)O)NC1=O [Compound R2030, [mXylyl(2,6)]Nvl-CEP-Phg-CR-Tbg-NH2] (H-[Nva]CEP[Phg]CR[Tle]-NH2; linker 2-6 via mXylylene)	> 100	> 100	> 100	> 10.4	> 100	0.025	> 100	> 100	
CC[C@H](C)[C@@H]1NC(=O)[C@H](CO)NC(=O)[C@H](CCC(=O)O)NC(=O)CCSCc2cccc(c2)CSC[C@@H](C(=O)N[C@@H](CCCNC(=N)N)C(=O)N[C@H](C(N)=O)C(C)C)NC1=O [Compound R2051, [mXylyl(1,5)](des-NH2)C-ESICRV-NH2] ([Mpa]ESICRV-NH2; linker 1-5 via mXylylene)	> 100	> 100	> 100	> 8.3	> 100	0.0129	> 100	> 100	
CC[C@H](C)[C@@H]1NC(=O)[C@H](CO)NC(=O)[C@H](CCC(=O)O)NC(=O)[C@@H](NC(C)=O)CSCc2cccc(c2)CSC[C@@H](C(=O)N[C@@H](CCCNC(=N)N)C(=O)N[C@H](C(N)=O)C(C)C)NC1=O [Compound R2023, [mXylyl(1,5)]Ac-CESICRV-NH2] (Ac-CESICRV-NH2; linker 1-5 via mXylylene)	> 100	> 100	> 100	> 12.1	> 100	0.019	> 7	> 100	
CC[C@H](C)[C@@H]1NC(=O)[C@H](CO)NC(=O)[C@H](CCC(=O)O)NC(=O)[C@@H](NC(=O)[C@@H](N)CCSC)CSCc2cccc(c2)CSC[C@@H](C(=O)N[C@@H](CCCNC(=N)N)C(=O)N[C@H](C(N)=O)C(C)C)NC1=O [Compound R2006, [mXylyl(2,6)]MCESICRV-NH2] (H-MCESICRV-NH2; linker 2-6 via mXylylene)	> 100	> 100	> 100	> 11.6	> 100		> 7	> 100	0.025
CC(=O)N[C@H]1CSCc2cccc(c2)CSC[C@@H](C(=O)N[C@@H](CCCNC(=N)N)C(=O)N[C@H](C(N)=O)C(C)(C)C)NC(=O)[C@H](c2ccccc2)NC(=O)[C@H](CO)NC(=O)[C@H](C)NC1=O [Compound R2036, [mXylyl(1,5)]Ac-CAS-Phg-CR-Tbg-NH2] (Ac-CAS[Phg]CR[Tle]-NH2; linker 1-5 via mXylylene)	> 100	> 100	> 100	> 4.8	> 100	0.0064	> 7	> 19.5	
